Reference: article PMC7281150, “Inspired by Sea Urchins: Warburg Effect Mediated Selectivity of Novel Synthetic Non-Glycoside 1,4-Naphthoquinone-6S-Glucose Conjugates in Prostate Cancer” (Marine Drugs, 2020)
In brackets after ≈: the same amount, converted by molar mass. Read-outs that look alike come from different tables or passages of the source.

Columns and labels:
[1] = system: 22Rv1 cells; experiment: Analysis of cell cycle progression and DNA fragmentation (PI staining, FACS); format: cell-based, human; conditions: 22Rv1, 48 h
Procedure: Cells (2 × 10^5 cells/well) were pre-incubated overnight in 6-well plates. Then, cells were treated with the substances in 2 mL of fresh culture media/well for 48 h. Cells were harvested by trypsination, fixed in 70% EtOH, stained with PI, and analyzed by FACS Calibur (BD Bioscience, San Jose, CA, USA). The results were quantified using BD Bioscience Cell Quest Pro v.5.2.1. software (BD Bioscience, San Jose, CA, USA). The sub-G1 population was considered to reflect apoptotic cells (containing fragmented DNA).

[2] = system: PC-3 cells; format: cell-based, human; conditions: PC-3, zVAD 100 µM, 48 h
[3] = system: PC-3 cells; experiment: Glucose uptake assay (2-NBDG), plate reader-based measurement; format: cell-based, human; conditions: PC-3, 24 h
Procedure: (§1) The effects of the synthesized substance on glucose uptake were evaluated using the Glucose Uptake Cell-Based Assay Kit (Cayman chemicals, Ann Arbor, MI, USA) and two different methods. (a) Plate reader-based measurement: PC-3 cells (12 × 10^3 cells/well) were seeded in two 96-well plates, incubated overnight, and treated with the investigated drugs in 100 µL/well of glucose-free 0.1% FBS/RPMI media for 24 h. Then, the 10 µL/well of either 2-NBDG solution (2-deoxy-2-[(7-nitro-2,1,3-benzoxadiazol-4-yl)amino]-D-glucose, 5 mg/mL, for glucose uptake measurements) or vehicle solution (for cell viability measurements) in glucose-free 0.1% FBS/RPMI media were added to each well. […] Then, for glucose uptake measurements, the 100 µL/well of PBS were added and the fluorescence was measured using Infinite F200PRO reader (TECAN, Männedorf, Switzerland); or, for the cell viability measurements, 100 µL/well of media containing MTS reagent were added to the cells and viability was measured as described before. Glucose uptake rate was normalized to the cell viability measured by MTS assay in order to measure the uptake rate exclusively in the viable cells. (b) FACS-based readout: The experiment was performed as described before. […] The plates were then incubated with 2-NBDG solution, the cells were harvested by trypsination, washed, stained with PI, and analyzed using a flow cytometry.

[4] = system: human drug-resistant prostate cancer PC-3 cells; experiment: MTT cytotoxicity in PC-3 cells; format: cell-based; conditions: for IC50: 24 h, read-out: IC50 (viability of PC-3 cells)
Procedure: (§2) Cell viability was determined by MTT assay. Cells were pre-incubated overnight in 96-well plates (6 × 10^3 cells/well in 100 μL/well). Then, the medium was replaced with fresh medium containing the determined compounds (100 μL/well), and cells were incubated for the indicated time. Next, 10 μL/well of (3-(4,5-dimethylthiazol-2-yl)-2,5-diphenyltetrazolium bromide) reagent were added. After 2–4 h of incubation, the media was aspirated and the plates were dried. Fifty microliters per well of DMSO were added to each well and the cell viability was measured using Infinite F200PRO reader (TECAN, Männedorf, Switzerland). Results were calculated by The GraphPad Prism software v. 7.05 (GraphPad Prism software Inc., La Jolla, CA, USA) and are represented as IC50 of the compounds against control cells treated with the solvent alone.

[5] = system: 22Rv1 cells; experiment: Analysis of mitochondrial membrane potential (JC-1, FACS); format: cell-based, human
Procedure: The drop down of mitochondrial membrane potential (ΔΨm) was measured using staining with ΔΨm-sensitive JC-1 dye (5,5′,6,6′-Tetrachloro-1,1′,3,3′-tetraethyl-imidacarbocyanine iodide) and flow cytometry technique. Cells (10^5 cells/well) were seeded in 12-well plates and incubated overnight. […] The cells were trypsinized, pelleted, resuspended in 100 µL of 2 µM JC-1/PBS, incubated for 1 h (37 °C, 5% CO2, in the dark), and analyzed by flow cytometry technique.

[6] = system: 22Rv1 cells; experiment: MTT cytotoxicity in 22Rv1 cells with or without N-acetyl-L-cysteine; format: cell-based, human; conditions: without NaC, FBS- and glucose-free media, 48 h, read-out: IC50 (viability of 22Rv1 cells)
Procedure: as §2

[7] = system: PC-3 cells; experiment: Glucose uptake assay (2-NBDG), FACS-based readout; format: cell-based, human; conditions: PC-3, 24 h
Procedure: as §1

[8] = system: 22Rv1 cells; experiment: Analysis of intracellular ROS level (CM-H2DCFDA, FACS); format: cell-based, human; conditions: 2 h
Procedure: Intracellular ROS levels were accessed using the ROS-sensitive CM-H2DCFDA reagent (Cat. No. C6827, Molecular probes, Invitrogen, Eugene, OR, USA). The experiment was performed as previously described with slight modifications. In brief, 22Rv1 cells (10^5 cells/well) were seeded in 12-well plates and incubated overnight. The media was changed with freshly made pre-warmed staining solution (4 µM CM-H2DCFDA/PBS, 0.5 mL/well) and incubated in the dark (37 °C, 5% CO2) for 30 min. Then, the staining solution was exchanged with 1 mL/well of pre-warmed PBS containing the investigated compounds or H2O2 (positive control) at the indicated concentrations and the cells were incubated for 2 h. Next, the cells were trypsinized, resuspended in pre-warmed PBS (200 µL/sample) and immediately analyzed by FACS according to the manufacture′s protocol.

[9] = system: 22Rv1 cells; experiment: Cell fractionation (mitochondrial, cytoplasmic, total) with Western blotting; format: cell-based, human; conditions: 22Rv1, 48 h
Procedure: (§3) Cells (10^6 cells/well) were seeded in Petri dishes (ø 6 cm) and incubated overnight. The cells were treated with the investigational drugs in fresh culture media (5 mL/dish) for 48 h. Then, cells were harvested by scratching and lysed in the lysis buffer (1% NP-40, 50 mM Tris-HCl (pH 7.6), 0.88% NaCl, 0.25% sodium cholate, 1 mM Na3VO4, 0.1 mM PMSF, protease inhibitors cocktail (cOmplete Mini EDTA-free EASYpacks, Roche, Mannheim, Germany)). Proteins were extracted and diluted with lysis buffer and loading dye, heated 5 min at 99 °C and subjected to electrophoresis in gradient Mini-PROTEAN® TGX Stain-Free^TM gels (Bio-Rad, Hercules, CA, USA). Proteins were transferred from gel to 0.2 µm pore PVDF membrane using Trans-Blot® Turbo^TM RTA Mini PVDF Trans kit (Bio-Rad) and Trans-Blot® Turbo^TM Blotting System (Bio-Rad) according to the manufactures protocol. The membrane was blocked (5% BSA in 0.05% Tween-20/TBS), treated with primary and secondary antibodies, and the signals were detected using the ECL chemiluminescence system (Thermo Scientific, Rockford, IL, USA). All procedures were performed according to the manufacturer′s protocols.
The separation of cellular nuclear, mitochondrial, and cytosolic fractions was performed using the Cell Fractionation Kit ab109719 (abcam, Cambridge, MA, USA). […]

[10] = system: 22Rv1 cells; experiment: Western blotting of protein expression; format: cell-based, human; conditions: for cleavage of caspase-3 (Western blotting) / p21 expression (Western blotting) / PARP cleavage (Western blotting): 22Rv1, 48 h; for PARP cleavage (Western blotting): concentrations close to IC50s
Procedure: as §3

[11] = system: five prostate cancer (LNCaP, 22Rv1, VCaP, PC-3, and DU145) vs. five non-cancer (PNT2, RWPE-1, HEK 293T, MRC-9, and HUVEC) cell lines; experiment: Mean MTT cytotoxicity in five prostate cancer vs. five non-cancer cell lines; format: cell-based, human; conditions: 48 h
Procedure: as §2

[12] = system: human cancer HeLa S3 cells; set-up: method as in PMID 3437287; conditions: cited from earlier work
[13] = glucose-containing media (+Glc, 2 g/L)

Row | Compound | DNA fragmentation (sub-G1 peak) [1] | cell cycle progression [1] | effect of co-treatment with pan-caspase inhibitor zVAD on cytotoxic effects [2] | glucose uptake (2-NBDG, plate reader), normalized to cell viability [3] | IC50 [4, 13] [µM] | IC50 ([4]; glucose-free media (−Glc)) [µM] | IC50 [6] [µM] | glucose uptake (2-NBDG, single cells by flow cytometry), normalized to cell viability [7] | cleavage of caspase-3 (Western blotting) [10] | p21 expression (Western blotting) [10] | PARP cleavage (Western blotting) [10] | other results
1 | 6-(1,2,3,4-Tetra-O-acetyl-6-deoxy-β-D-glucopyranos-6-ylthio)-5,8-dihydroxy-7-methyl-2,3-dimethoxy-1,4-naphthoquinone [SAB-13] | DNA fragmentation | G2/M-cell cycle arrest | antagonized the cytotoxic effects | inhibition of glucose uptake | 10.8 ± 1.7 | 5 ± 1.1 | 2.3 ± 0.3 | inhibition of glucose uptake | cleavage of caspase-3 was observed | upregulation of p21 | PARP cleavage | higher cytotoxicity compared with SAB-14 ([4]; screening, MTT, 48 h): ~ 10 fold; cells containing depolarized mitochondria (JC-1) ([5]; 22Rv1, 2 μM, 2 h): 47.3±6.1%; cells containing depolarized mitochondria (JC-1) ([5]; 22Rv1, 2 μM, 48 h): 69.5±8.1%; ROS level (CM-H2DCFDA, FACS) ([8]; 22Rv1, 0.5 μM): 31.2±3.2%; redistribution of mitochondrial proteins (cytochrome C, AIF) to cytoplasm [9]: release of cytotoxic mitochondrial proteins to cellular cytoplasm; caspase-9 activation (cleaved caspase-9, Western blotting) ([10]; 22Rv1, 2 h): activated caspase-9 shortly after treatment
2 | 6-(6-Deoxy-D-glucopyranos-6-ylthio)-5,8-dihydroxy-7-methyl-2,3-dimethoxy-1,4-naphthoquinone [SAB-14] | DNA fragmentation | G2/M-cell cycle arrest | antagonized the cytotoxic effects | inhibition of glucose uptake | 22.6 ± 7.3 | 4.7 ± 1.4 | 4.6 ± 2.9 | inhibition of glucose uptake | cleavage of caspase-3 was observed | upregulation of p21 | PARP cleavage | selectivity to prostate cancer cells vs. non-cancer lines (mean cytotoxicity) [11]: higher selectivity to the cancer cells; selectivity index (SI), IC50 (PNT2)/IC50 (PC-3) ([4]; MTT, 48 h): > 2; cells containing depolarized mitochondria (JC-1) ([5]; 22Rv1, 10 μM, 2 h): 20.4±3.6%; cells containing depolarized mitochondria (JC-1) ([5]; 22Rv1, 10 μM, 48 h): 47±1.0%; ROS level (CM-H2DCFDA, FACS) ([8]; 22Rv1, 5 μM): 9.9±0.4%
3 | COC1=C(OC)C(=O)c2c(O)c(OC)cc(O)c2C1=O [tricrozarin B] | – | – | – | – | – | – | – | – | – | – | – | IC50 (colony formation) [12]: 7 ng/mL (≈ 0.025 µM)
